Data on 10 molecules can be found in publication PMC6337650 (Molecules, 2018).

Data set [1] relates to L02 cells. As to the kind of experiment: MTT assay on normal liver cells L02. Particulars: Homo sapiens, normal liver cells, 48 h, MTT, Table 2, read-out: IC50 Values (μM) L02. It is filed as cell-based. As for the experimental part: (§1) The antiproliferative activity of the target compounds against a normal L02 cell line and the three different human cancer cell lines viz. colorectal (HCT-116), liver (BEL-7402) and liver (HepG2) were evaluated using a standard MTT-based colorimetric assay. All cell lines were obtained from the Key Laboratory of Natural Resources and Functional Molecules of the Changbai Mountain (Yanbian University, Jilin, China) and maintained in Dulbecco’s modified Eagle’s medium (DMEM) and RPMI Media 1640 (RPMI1640), supplemented with 10% fetal bovine serum (FBS) at 37 °C in a humidified atmosphere containing 5% CO2.
Cells were plated in 96-well plates at appropriate densities to ensure exponential growth throughout the experimental period (9 × 10^3 cells per well) and then allowed to adhere for 24 h. Cells were then treated for 48 h with four serial concentrations (1, 10, 50 and 100 µM) of each compound. […] After 48 h of incubation, 10 µL of MTT solution was added to each well to a final concentration of 2 mg/mL. Plates were then incubated for a further 4 h. After incubation, the MTT solution was removed and 150 µL of DMSO was added to each well for coloration. The plates were shaken vigorously for 10 min at room temperature to ensure complete solubilization. The optical density (OD) was read on a microplate reader (ELx800, BioTek, Highland Park, Winooski, VT, USA) at a wavelength of 492 nm and the data were subsequently analyzed. The percentage of cell growth inhibition was calculated from the following equation: Inhibitory rate (%) = [(1 − (ODtreated-ODblank)/(ODcontrol-ODblank)] × 100.(1)

In data set [2] the test system is HepG2 cells. The experiment in a line: MTT antiproliferative assay, HepG2. It is filed as cell-based, human. The note with it: Homo sapiens, HepG2, 48 h, MTT, mean ± SD, n=3; for inhibition at 100 µM: read-out: % Growth Inhibition at 100 μM HepG2. The method, then: as §1
(§2) Cells were plated in 96-well plates at appropriate densities to ensure exponential growth throughout the experimental period (9 × 10^3 cells per well) and then allowed to adhere for 24 h. Cells were then treated for 48 h with four serial concentrations (1, 10, 50 and 100 µM) of each compound. 5-fluorouracil (5-FU) was used as a positive control. After 48 h of incubation, 10 µL of MTT solution was added to each well to a final concentration of 2 mg/mL. Plates were then incubated for a further 4 h. After incubation, the MTT solution was removed and 150 µL of DMSO was added to each well for coloration. The plates were shaken vigorously for 10 min at room temperature to ensure complete solubilization. The optical density (OD) was read on a microplate reader (ELx800, BioTek, Highland Park, Winooski, VT, USA) at a wavelength of 492 nm and the data were subsequently analyzed. The percentage of cell growth inhibition was calculated from the following equation: Inhibitory rate (%) = [(1 − (ODtreated-ODblank)/(ODcontrol-ODblank)] × 100.(1)
(In general: Tetrazolium dyes change colour on reduction, which living cells bring about.)

Data set [3] has as its system BEL-7402 cells. The experiment in a line: MTT antiproliferative assay, BEL-7402. The class given is cell-based, human. The note with it: Homo sapiens, Bel-7402, 48 h, MTT, mean ± SD, n=3; for inhibition at 100 µM: read-out: % Growth Inhibition at 100 μM BEL-7402. The method, then: as §1, §2
In data set [4] the test system is HCT-116 cells. As to the kind of experiment: MTT antiproliferative assay, HCT-116. The class given is cell-based, human. Particulars: Homo sapiens, HCT-116, 48 h, MTT, mean ± SD, n=3; for inhibition at 100 µM: read-out: % Growth Inhibition at 100 μM HCT-116. As for the experimental part:
as §1, §2

A value given as a limit tells only on which side of the number the result lay.

As usually defined, the IC50 is the concentration needed to halve the response being measured. A word on the inhibition: it is the drop in the measured response relative to a control, in per cent. As a reminder, the melting point is the temperature of the solid-liquid transition. `COc1ccc(-n2cc(CNC(=O)COC(=O)[C@]3(C)CCC[C@@]4(C)[C@@H]5CC[C@@]6(C)C[C@]5(CC[C@@H]43)CC6=O)nn2)cc1` [Compound 5c, 2-(((1-(4-methoxyphenyl)-1H-1,2,3-triazol-4-yl)methyl)amino)-2-oxoethyl(4R,4aS,6aR,9S,11aR,11bS)-4,9,11b-trimethyl-8-oxotetradecahydro-6a,9-methanocyclohepta[a]naphthalene-4-carboxylate]: the melting point was 71 to 72 °C. For the same molecule, the IC50 in data set [1] is more than 100 µM. Further, in data set [2], the inhibition at 100 µM is 82.8 ± 2.02% and the midpoint of inhibition, the IC50, lay at 12.3 ± 0.77 µM. In data set [3], the inhibition at 100 µM amounted to 75.6 ± 1.76% and the IC50 was more than 100 µM. For the same molecule, in data set [4], the inhibition at 100 µM stood at 84.6 ± 1.55% and the IC50 worked out at 14.4 ± 1.31 µM.

`COC(=O)[C@@H](NC(=O)[C@]1(C)CCC[C@@]2(C)[C@@H]3CC[C@@]4(C)C[C@]3(CC[C@@H]21)CC4=O)c1ccccc1` [Compound 3a, Methyl(S)-2-phenyl-2-((4R,4aS,6aR,9S,11aR,11bS)-4,9,11b-trimethyl-8-oxotetradecahydro-6a,9-methanocyclohepta[a]naphthalene-4-carboxamido)acetate] came in with a melting point of 143 to 145 °C. Moreover, in data set [1], the IC50 is more than 100 µM. In data set [2], the inhibition at 100 µM turned out to be 75.25 ± 0.56% and the concentration for half-maximal inhibition (IC50) was more than 100 µM. In addition, in data set [3], the inhibition at 100 µM was found to be 80 ± 0.95% and the IC50 was more than 100 µM. In data set [4], the inhibition at 100 µM is 86.26 ± 0.59% and the concentration for half-maximal inhibition (IC50) stood at 40.4 ± 0.97 µM.

For the molecule `C[C@@]12CC[C@@H]3[C@@](CC[C@H]4[C@@]3(C)CCC[C@@]4(C)C(=O)OCC(=O)Nc3cccc(F)c3)(CC1=O)C2` [Compound 4f, 2-((3-fluorophenyl)amino)-2-oxoethyl(4R,4aS,6aR,9S,11aR,11bS)-4,9,11b-trimethyl-8-oxotetradecahydro-6a,9-methanocyclohepta[a]naphthalene-4-carboxylate], the melting point fell in the range of 144 to 145 °C. Also, in data set [1], the IC50 was more than 100 µM. Also, in data set [2], the inhibition at 100 µM came out at 49.12 ± 0.44% and the 50% inhibitory concentration (IC50) was more than 100 µM. Also, in data set [3], the inhibition at 100 µM came out at 54.6 ± 3.11% and the IC50 was more than 100 µM. Also, in data set [4], the inhibition at 100 µM amounted to 68.7 ± 2.67% and the IC50 worked out at 17.2 ± 0.43 µM.

Molecule `CCOP(=O)(OCC)C(NC(=O)COC(=O)[C@]1(C)CCC[C@@]2(C)[C@@H]3CC[C@@]4(C)C[C@]3(CC[C@@H]21)CC4=O)c1ccc(C)cc1` (stereo partly drawn) [Compound 6d, 2-(((diethoxyphosphoryl)(p-tolyl)methyl)amino)-2-oxoethyl(4R,4aS,6aR,9S,11aR,11bS)-4,9,11b-trimethyl-8-oxotetradecahydro-6a,9-methanocyclohepta[a]naphthalene-4-carboxylate] showed a melting point of 119 to 120 °C. Also, the concentration for half-maximal inhibition (IC50) in data set [1] was more than 100 µM. Further, in data set [2], the inhibition at 100 µM worked out at 80.64 ± 0.76% and the IC50 is 13.2 ± 0.86 µM. Also, in data set [3], the inhibition at 100 µM amounted to 51.5 ± 0.68% and the IC50 is 60.9 ± 1.37 µM. For the same molecule, in data set [4], the inhibition at 100 µM is 76.6 ± 2.33% and the IC50 turned out to be 18.7 ± 0.17 µM.

`C[C@@]12CC[C@@H]3[C@@](CC[C@H]4[C@@]3(C)CCC[C@@]4(C)C(=O)OCC(=O)N3CCN(Cc4ccccc4)CC3)(CC1=O)C2` [Compound 2d, 2-(4-benzylpiperazin-1-yl)-2-oxoethyl(4R,4aS,6aR,9S,11aR,11bS)-4,9,11b-trimethyl-8-oxotetradecahydro-6a,9-methanocyclohepta[a]naphthalene-4-carboxylate]: the melting point was 149 to 150 °C. Besides, the IC50 in data set [1] is more than 100 µM. In data set [2], the inhibition at 100 µM is 70.6 ± 0.89% and the midpoint of inhibition, the IC50, lay at 11.1 ± 0.55 µM. Besides, in data set [3], the inhibition at 100 µM turned out to be 70.9 ± 1.05% and inhibition was half-maximal at 53 ± 1.97 µM (IC50). Also, in data set [4], the inhibition at 100 µM is 75.4 ± 1.06% and the IC50 was 18.2 ± 1.26 µM.

As for `CCOP(=O)(OCC)C(NC(=O)COC(=O)[C@]1(C)CCC[C@@]2(C)[C@@H]3CC[C@@]4(C)C[C@]3(CC[C@@H]21)CC4=O)c1ccc(OC)cc1` (stereo partly drawn) [Compound 6c, 2-(((diethoxyphosphoryl)(4-methoxyphenyl)methyl)amino)-2-oxoethyl(4R,4aS,6aR,9S,11aR,11bS)-4,9,11b-trimethyl-8-oxotetradecahydro-6a,9-methanocyclohepta[a]naphthalene-4-carboxylate], the melting point was in the range of 134 to 135 °C. In addition, in data set [1], the IC50 was more than 100 µM. Besides, in data set [2], the inhibition at 100 µM worked out at 41.4 ± 1.86% and the half-maximal inhibitory concentration (IC50) was more than 100 µM. Moreover, in data set [3], the inhibition at 100 µM was determined as 50.9 ± 2.68% and the midpoint of inhibition, the IC50, lay at 92.6 ± 1.96 µM. Besides, in data set [4], the inhibition at 100 µM was found to be 74.1 ± 2.45% and the IC50 turned out to be 15.15 ± 0.11 µM.

`CCN1CCN(C(=O)COC(=O)[C@]2(C)CCC[C@@]3(C)[C@@H]4CC[C@@]5(C)C[C@]4(CC[C@@H]32)CC5=O)CC1` [Compound 2b, 2-(4-ethylpiperazin-1-yl)-2-oxoethyl(4R,4aS,6aR,9S,11aR,11bS)-4,9,11b-trimethyl-8-oxotetradecahydro-6a,9-methanocyclohepta[a]naphthalene-4-carboxylate] came in with a melting point of 115 to 117 °C. In data set [1], the concentration for half-maximal inhibition (IC50) was more than 100 µM. In data set [2], the inhibition at 100 µM is less than 10% and the IC50 was more than 100 µM. In data set [3], the inhibition at 100 µM turned out to be 64.4 ± 1.66% and the concentration for half-maximal inhibition (IC50) is more than 100 µM. Moreover, in data set [4], the inhibition at 100 µM was 60.4 ± 1.69% and the IC50 stood at 30.7 ± 1.98 µM.

As for `COC(=O)C(Cc1ccccc1)NC(=O)C1(C)CCCC2(C)C3CCC4(C)CC3(CCC12)CC4=O` [Compound 3b, Methyl((4R,4aS,6aR,9S,11aR,11bS)-4,9,11b-trimethyl-8-oxotetradecahydro-6a,9-methanocyclohepta[a]naphthalene-4-carbonyl)-D-phenylalaninate], the melting point lay in the range of 147 to 148 °C. The IC50 in data set [1] was more than 100 µM. In data set [2], the inhibition at 100 µM was found to be 81.2 ± 2.66% and half-maximal inhibition (IC50) was put at 24.4 ± 1.75 µM. Besides, in data set [3], the inhibition at 100 µM is 61.8 ± 0.96% and the 50% inhibitory concentration (IC50) is 36.5 ± 0.67 µM. Further, in data set [4], the inhibition at 100 µM stood at 70.8 ± 0.98% and the midpoint of inhibition, the IC50, lay at 22.8 ± 0.81 µM.

Molecule `C[C@@]12CC[C@@H]3[C@@](CC[C@H]4[C@@]3(C)CCC[C@@]4(C)C(=O)OCC(=O)NCc3cn(-c4ccc(Cl)cc4)nn3)(CC1=O)C2` [Compound 5b, 2-(((1-(4-chlorophenyl)-1H-1,2,3-triazol-4-yl)methyl)amino)-2-oxoethyl(4R,4aS,6aR,9S,11aR,11bS)-4,9,11b-trimethyl-8-oxotetradecahydro-6a,9-methanocyclohepta[a]naphthalene-4-carboxylate] yielded a melting point of 80 to 82 °C. For the same molecule, the concentration for half-maximal inhibition (IC50) in data set [1] is more than 100 µM. Also, in data set [2], the inhibition at 100 µM was 82.1 ± 1.82% and the IC50 turned out to be 11.7 ± 0.23 µM. In data set [3], the inhibition at 100 µM worked out at 90.5 ± 1.04% and half-maximal inhibition (IC50) required 22.5 ± 0.58 µM. In data set [4], the inhibition at 100 µM worked out at 85.6 ± 1.34% and half-maximal inhibition (IC50) required 7.44 ± 0.37 µM.

Take `C[C@@]12CC[C@@H]3[C@@](CC[C@H]4[C@@]3(C)CCC[C@@]4(C)C(=O)OCC(=O)NCc3cn(-c4ccccc4)nn3)(CC1=O)C2` [Compound 5a, 2-oxo-2-(((1-phenyl-1H-1,2,3-triazol-4-yl)methyl)amino)ethyl(4R,4aS,6aR,9S,11aR,11bS)-4,9,11b-trimethyl-8-oxotetradecahydro-6a,9-methanocyclohepta[a]naphthalene-4-carboxylate]: the melting point lay in the range of 83 to 84 °C. For the same molecule, in data set [1], the half-inhibitory concentration (IC50) is more than 100 µM. For the same molecule, in data set [2], the inhibition at 100 µM is 87 ± 1.06% and the 50% inhibitory concentration (IC50) was determined as 9.87 ± 0.13 µM. In addition, in data set [3], the inhibition at 100 µM was found to be 90 ± 1.92% and the 50% inhibitory concentration (IC50) stood at 27.1 ± 0.87 µM. Also, in data set [4], the inhibition at 100 µM came to 81.9 ± 2.55% and the half-maximal inhibitory concentration (IC50) came to 14.6 ± 0.51 µM.
